Square brackets hold non-standard residues; d marks the D form. Primed or numbered codes have the meaning given here. Ends that are not written are not given here. Peptide text beside a SMILES is read from it. * marks the point of attachment. EDDnp = O=[N+]([O-])c1ccc(NCCN*)c([N+](=O)[O-])c1; Dnp = O=[N+]([O-])c1ccc(*)c([N+](=O)[O-])c1; Dnp′ = 2,4-dinitrophenyl; 2Abz = Nc1ccccc1C(=O)O
Assays:
Assay type in all cases: biochemical
secPHEX [1] = target: T1, secPHEX (Homo sapiens, UniProt P78562); assay: Kinetic parameters for hydrolysis of internally quenched fluorogenic peptides by secPHEX; conditions: for hydrolysis by secPHEX (result in words): 37° C., 10 mM Bis-Tris buffer pH 5.5, 150 mM NaCl
T1 construct: pure soluble form of PHEX (secPHEX); made in house
T1 sequence (P78562 46-749 limits assumed): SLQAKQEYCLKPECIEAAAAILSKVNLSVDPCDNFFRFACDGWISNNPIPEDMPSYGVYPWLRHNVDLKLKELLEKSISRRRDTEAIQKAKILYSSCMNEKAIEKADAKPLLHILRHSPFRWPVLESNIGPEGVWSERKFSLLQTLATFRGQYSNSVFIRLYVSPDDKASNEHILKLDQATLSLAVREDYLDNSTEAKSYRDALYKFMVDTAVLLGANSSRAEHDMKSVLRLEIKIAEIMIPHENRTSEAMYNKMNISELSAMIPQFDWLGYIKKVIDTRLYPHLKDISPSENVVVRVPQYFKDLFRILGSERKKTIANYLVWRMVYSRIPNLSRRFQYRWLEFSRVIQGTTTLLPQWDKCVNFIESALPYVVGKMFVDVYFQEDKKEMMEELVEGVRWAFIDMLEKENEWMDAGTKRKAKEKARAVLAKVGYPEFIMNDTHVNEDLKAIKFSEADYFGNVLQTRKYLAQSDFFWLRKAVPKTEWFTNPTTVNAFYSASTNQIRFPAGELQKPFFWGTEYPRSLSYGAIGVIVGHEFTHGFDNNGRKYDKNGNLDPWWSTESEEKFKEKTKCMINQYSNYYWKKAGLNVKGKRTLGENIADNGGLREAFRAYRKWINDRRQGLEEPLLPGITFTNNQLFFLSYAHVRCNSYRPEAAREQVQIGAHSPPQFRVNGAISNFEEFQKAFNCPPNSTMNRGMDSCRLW
Protocol: The human recombinant secPHEX was obtained following the procedure previously described (17, WO 00/50580). Purified secPHEX concentration was determined using the Bradford method (DC protein assay kit; Bio-Rad, Mississauga, ON, Canada). Membrane-bound recombinant human PHEX was expressed in LLC-PK1 cells (17, (WO 00/50580)) and membranes were prepared essentially as described by Guo et al. (34). Briefly, transfected cells resuspended in lysis buffer (150 mM NaCl, 20 mM Tris.HCl, pH 7.6) were disrupted by sonication. Cell debris were removed by centrifugation at 300 g for 15 min at 4 °C. Membranes were collected by centrifugation at 30,000 g for 50 min and solubilized for 2h with 1% n-dodecyl-β-D-maltoside in lysis buffer. Insoluble material was pelleted by centrifugation at 10,000 g for 15 min and protein concentrations of the supernatant determined using the Bradford method described above. PHEX amounts were evaluated by immunoblotting as described previously (17). NEP expression and purification were performed as described previously (36).
The hydrolysis of the IQFPs, at 37° C., in 10 mM Bit-Tris buffer pH 5.5 (0.35 to 1.0 ml final volume) containing 150 mM NaCl, was continuously followed measuring the fluorescence at γem=420 nm and γex=320 nm in a Hitachi F-2000™ spectrofluorometer. The cuvefte containing the buffer and the substrate was placed in a thermostatically controlled cell compartment for 5 min before the addition of the enzyme and the increase in fluorescence with time was continuously recorded for 5-10 min. The enzyme concentration for initial rate determination was chosen at a level intended to hydrolyze less than 5% of the substrate present. […] The kinetic parameters Km and kcat were calculated by the non-linear regression data analysis Grafit program (42). The kcat/Km values were calculated as the ratio of these two determined parameters. The apparent second order rate constant kcat/Km (*kIt/Km) was determined under pseudo first-order conditions, where [S]<<Km. […]

secPHEX [2] = target: T1, secPHEX; assay: IC50 determination of PHEX inhibitor, fluorigenic substrate assay
Protocol: secPHEX enzymatic activity was determined using a fluorigenic substrate where increase of fluorescence was proportional to substrate conversion to products. […] Of these, S3 was the most preferred substrate. S3 was synthesized as described above.
The reaction was carried out in a total volume of 200 μl constituted of buffer (50 mM Mes(NaOH) pH 6.5, 150 mM NaCl) containing various concentrations of the tested PHEX inhibitor (3×10^−5 to 1×10^−11 M) and 100 ng of purified secPHEX. The enzymatic reaction was initiated with the addition of the fluorigenic substrate at a final concentration of 10 μM. The fluorescent reaction product was excited at 320 nm with fluoresce emission read at 420 nm every four minutes over a one-hour period using 96-well plate reader (Perkin-Elmer, HTS-7000™). The initial reaction rate was calculated from the acquired fluorescence-time data as a slope using Microsoft Excell™. Further examples can be found in the co-pending PCT application number PCT/CA03/01893.
IC50 was determined with a plot of the initial rates computed above as a function of inhibitor concentration using the one site competition equation of GraphPad Prism™ version 3.03 (GraphPad™ Software Inc.).

secPHEX [3] = target: T1, secPHEX; assay: Determination of secPHEX activity and concentration in serum with fluorigenic substrate; conditions: activity determination in serum
Protocol: FIG. 6 graphically illustrates the secPHEX enzymatic activity on a fluorigenic substrate of the present invention in rat serum. The observed fluorescence increase was proportional to the reaction product formation. The reaction was carried out in a total volume of 200 μl constituted of buffer: 50 mM Hepes (NaOH) pH 7.4, 150 mM NaCl, 5*10−6 M captopril (ACE inhibitor), containing 10 μl of rat serum in which purified sPHEX was spiked. The enzymatic reaction was initiated by the addition of the fluorigenic substrate (Abz-GFSDYK-Dnp) (SEQ ID NO:3) at a final concentration of 20 μM. The fluorescent reaction product was excited at 320 nm and fluorescence recorded at 420 nm every four minutes over a one-hour period in a 96-well plate reader (Perkin-Elmer, HTS-7000). The initial enzymatic speed rate of the reaction was calculated for each condition. The reaction was carried out in presence of 5 mM EDTA to assess whether the assay is specific to metallopeptidase. Measurements were done in duplicates.
secPHEX enzymatic activity was determined using a fluorigenic substrate where increase of fluorescence was proportional to substrate conversion to products. […] Of these, S3 was the most preferred substrate. […]
The reaction was carried out in a total volume of 200 μl constituted of buffer (50 mM Mes(NaOH) pH 6.5, 150 mM NaCl, 5×10^−6 M captopril (ACE inhibitor)) and serum (preferably between 2 to 50 μl). […] The fluorescent reaction product is excited at 320 nm with fluoresce emission read at 420 nm every four minutes over a one-hour period using 96-well plate reader (Perikin-Elmer, HTS-7000™). The initial reaction rate was calculated from the acquired fluorescence-time data as a slope using Microsoft Excell™. PHEX Enzymatic activity (Vi) was calculated by subtracting to the initial rate of fluorescence (Vitot) with the same measured in presence of EDTA 5 mM (ViEDTA). […]
The actual secPHEX concentration was determined from a calibration curve (Vi Vs secPHEX concentration) obtained by serial dilution of secPHEX in serum or other biological media as required.

secPHEX [4] = target: T1, secPHEX; assay: pH activity profile and NaCl dependence of secPHEX hydrolysis
Protocol: FIG. 2 graphically illustrates pH and NaCl (inset) dependence of Abz-GFSDYK(Dnp)-OH (SEQ ID NO:3) hydrolysis by secPHEX. * k,t/Km values for the hydrolysis of Abz-GFSDYK(Dnp)-OH (SEQ ID NO:3) by PHEX were determined in presence of different buffers and pH conditions as described herein under the heading “Experimental Procedures” below. In the inset, the effect of NaCl is shown: Abz-GFSDYK(Dnp)-OH (SEQ ID NO:3) was incubated with secPHEX in 0.01 M Bis-Tris buffer, pH 5.5 with NaCl (0 to 0.5 M);
The pH dependence was studied using […] of Abz-GFSDYK(Dnp)-OH (SEQ ID NO:3) over a pH range of 3.5 to 8.5. The buffers used were as follows: 0.01 M sodium acetate (3.5<pH<5.1), 0.01 M Bis-Tris (5.1<pH<6.5), 0.01 M Hepes (6.5<pH<7.4) and 0.01 M Tris-HCI (7.4<pH<8.4), containing 0.14 M NaCl. Enzymatic activity was followed at 37° C. using the continuous fluorimetric assay and the apparent second-order rate constant (*kcat/Km) was calculated as described above for each pH.
The influence of salt on secPHEX catalytic activity was investigated using 0.2 μM of Abz-GFSDYK(Dnp)-OH (SEQ ID NO:3) as substrate at 37° C., in 0.01 M Bis-Tris buffer, pH 5.5, over a NaCl range of 0 to 500 mM. The increase in fluorescence was continuously measured at 37° C. and the apparent second-order rate constant (*kcat/Km) for the different NaCl concentrations was calculated as described above.

Molecule	suitability as secPHEX substrate (secPHEX [2])	suitability as secPHEX substrate (secPHEX [3])	also measured
NC(=O)[C@H](CCCCNc1ccc([N+](=O)[O-])cc1[N+](=O)[O-])NC(=O)[C@H](Cc1ccc(O)cc1)NC(=O)[C@H](CCC(=O)O)NC(=O)[C@H](CO)NC(=O)[C@H](Cc1ccccc1)NC(=O)CNC(=O)c1ccccc1N [V-Abz-GFSEYK(Dnp)-NH2, Abz-GFSEYK(Dnp)-NH2] (H-[2Abz]GFSEYK(Dnp)-NH2)			hydrolysis by secPHEX (result in words) (secPHEX [1]): Resistant; hydrolysis by secPHEX (result in words) (secPHEX [1]; listed as Abz-GFSEYK(Dnp)-NH2): resistant to hydrolysis
Abz-GFRDWK-Dnp ([2Abz]GFRDWK-{Dnp′}) [S1]	good secPHEX substrate	good secPHEX substrate	
Nc1ccccc1C(=O)NCC(=O)N[C@@H](Cc1ccccc1)C(=O)N[C@@H](CO)C(=O)N[C@@H](CC(=O)O)C(=O)N[C@@H](Cc1ccc(O)cc1)C(=O)N[C@@H](CCCCNc1ccc([N+](=O)[O-])cc1[N+](=O)[O-])C(=O)O [I-Abz-GFS↓DYK(Dnp)-OH, Abz-GFSDYK(Dnp)-OH] (H-[2Abz]GFSDYK(Dnp)-OH)	good secPHEX substrate	good secPHEX substrate	kcat/Km with 150 mM NaCl lower than in the absence of added salt (secPHEX [4]; 10 mM Bis Tris, pH 5,5): more than 2 fold; pH of maximum kcat/Km (secPHEX [4]; pH range of 3.5 to 8.5, 37° C.): ~5.5
NC(=O)[C@H](CCCCNc1ccc([N+](=O)[O-])cc1[N+](=O)[O-])NC(=O)[C@H](Cc1ccc(O)cc1)NC(=O)[C@H](CC(=O)O)NC(=O)[C@H](CO)NC(=O)[C@H](Cc1ccccc1)NC(=O)CNC(=O)c1ccccc1N [II-Abz-GFS↓DYK(Dnp)-NH2, Abz-GFSDYK(Dnp)-NH2] (H-[2Abz]GFSDYK(Dnp)-NH2)			decrease in catalytic efficiency compared with Abz-GFSDYK(Dnp)-OH (secPHEX [1]; COOH-terminus amidated analogue): 6 fold
CC(C)C[C@H](NC(=O)[C@H](Cc1c[nH]cn1)NC(=O)[C@H](CC(=O)O)NC(=O)c1ccccc1N)C(=O)N[C@@H](CO)C(=O)N[C@@H](CC(=O)O)C(=O)N[C@H](C(=O)N[C@@H](CO)C(=O)N[C@H](C(=O)N[C@@H](CCC(N)=O)C(=O)NCCNc1ccc([N+](=O)[O-])cc1[N+](=O)[O-])[C@@H](C)O)[C@@H](C)O [I-Abz-D125-HLS↓DTSTQ-EDDnp, Abz-DHLSDTSTQ-edDnp] (H-[2Abz]DHLSDTSTQ-EDDnp)	good secPHEX substrate	good secPHEX substrate	
